# From patent publication US6740636B2 (priority 2000, dated 2004)
# Columns and labels:
# [1] = tested on: allogeneic heart transplants; test: Histology, immunohistochemistry (ED1) and rejection score of allogeneic heart transplants 3 days after transplantation; type: in vivo, rat
# Description: Transplanted hearts were removed under deep anesthesia, quickly blotted free of blood, weighed, and then processed as needed for histology and immunohistochemistry. The organs were cut into 1-mm slices and either immersion-fixed in 4% formaldehyde in phosphate buffered saline (PBS) pH 7.35, (PBS: 99 mM NaH2PO4, 108 mM NaH2PO4 and 248 mM NaCl) for 24 h or fixed in methacarn for 8 h and embedded in paraffin. Light microscopy was performed on 3 μm sections stained by periodic acid-Schiff or Goldner-Elastica. Light microscopy was performed on allogeneic heart transplants 3 days after transplantation.
# The ED1 monoclonal antibody (Serotec/Camon) was used on methacarn fixed paraffin embedded tissue (3 μm) to stain for rat monocytes/macrophage cells. An alkaline phosphatase anti-alkaline phosphatase detection system was used for visualization (Dako). Controls that omit the first or second antibody for each section were performed for negative staining. […]
# Mild acute rejection (score: 1) was characterized by a sparse interstitial mononuclear infiltrate often accentuated in perivascular spaces. […] The rejection score was calculated for every tissue block and an average score was calculated from the different blocks for every transplanted heart as rejection processes tended to be focal.
# [2] = tested on: recipient Lewis rats given donor ACI rat grafts; test: Heterotopic heart transplant rejection model (ACI donor, Lewis recipient); type: in vivo; conditions: cyclosporin A only
# Text: In this assay an increase in allograft survival time corresponds to a decrease in heart transplant rejection in the recipient Lewis rats given donor ACI rat grafts.
# Adult male, specific pathogen-free ACI (RT1a) and Lewis (RT1l) rats (Charles River, Boston, Mass.) weighing 200 to 250 g were used as donors and recipients, respectively, in these studies. Vascularized cardiac allografts were heterotopically transplanted into the abdomen of recipient rats using a modification (Nisco, S. et al., (1994), supra) of the technique of Ono and Lindsay (Ono, K. et al., (1969), supra). […] Abdominal allografts were palpated on a daily basis to assess graft function, and rejection was deemed complete when palpable ventricular contractions ceased.
# The transplanted hearts were evaluated daily for signs of rejection over the course of the study.
substance,measurement,setting,value
cyclosporin A,immunohistology for ED1-positive monocytes/macrophages in allogeneic heart transplants,[1],inflammatory cell infiltrate was focal and was composed primarily of ED-1 positive cells
same,mean allograft survival time,[2]; 2.5 mg/kg by gavage once per day for duration of study,7.3±0.5 days
same,mean allograft survival time,[2]; 10 mg/kg by gavage once per day for four days,12.9±0.7 days
